Experimental data as given in patent US20240041042A1, “1-(PYRIDYL)-5-AZINYLPYRAZOLE DERIVATIVES, AND THEIR USE FOR CONTROL OF UNDESIRED PLANT GROWTH” (Bayer Aktiengesellschaft, priority 2020, published 2024).
Read-outs that look alike come from different tables or passages of the source.

Key:
Format in all cases: in vivo
[1] = tested on: Abutilon theophrasti (ABUTH); test: Post-emergence herbicidal action against ABUTH; details: visual rating about 3 weeks after treatment vs untreated controls (100% = plants have died, 0% = like control plants)
Summary of the method: (§1)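 Post-emergence greenhouse spray, one-leaf stage, 600 l/ha water plus 0.5% additive; WP or EC formulations; application rates 320 g/ha or lower. Visual % damage vs untreated controls at ~3 weeks.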

[2] = tested on: Alopecurus myosuroides (ALOMY); test: Post-emergence herbicidal action against ALOMY; details: visual rating about 3 weeks after treatment vs untreated controls (100% = plants have died, 0% = like control plants)
Summary of the method: as §1

[3] = tested on: Amaranthus retroflexus (AMARE); test: Post-emergence herbicidal action against AMARE
Summary of the method: as §1

[4] = tested on: Avena fatua (AVEFA); test: Post-emergence herbicidal action against AVEFA; details: visual rating about 3 weeks after treatment
Summary of the method: as §1

[5] = tested on: Digitaria sanguinalis (DIGSA); test: Post-emergence herbicidal action against DIGSA; details: visual rating about 3 weeks after treatment
Experimental: Seeds of monocotyledonous and dicotyledonous weeds and crop plants are placed in sandy loam in plastic or organic planting pots, covered with soil and cultivated in a greenhouse under controlled growth conditions. 2 to 3 weeks after sowing, the test plants are treated at the one-leaf stage. The compounds of the invention, formulated in the form of wettable powders (WP) or as emulsion concentrates (EC), are then sprayed onto the green parts of the plants as aqueous suspension or emulsion with addition of 0.5% additive at a water application rate of 600 l/ha (converted). After the test plants have been kept in the greenhouse under optimum growth conditions for about 3 weeks, the activity of the preparations is rated visually in comparison to untreated controls. For example, 100% activity=the plants have died, 0% activity=like control plants.
Tables B1 to B13 below show the effects of selected compounds of the general formula (I) according to Table 1 on various harmful plants and at an application rate corresponding to 320 g/ha or lower, which were obtained by the experimental procedure mentioned above. The appendices “a”, “b” and “c” give differentiation by dosage used with otherwise the same harmful plants tested.

[6] = tested on: Echinochloa crus-galli (ECHCG); test: Post-emergence herbicidal action against ECHCG
Summary of the method: as §1

[7] = tested on: Lolium rigidum (LOLRI); test: Post-emergence herbicidal action against LOLRI
Summary of the method: as §1

[8] = tested on: Matricaria inodora (MATIN); test: Post-emergence herbicidal action against MATIN
Summary of the method: as §1

[9] = tested on: Pharbitis purpurea (PHBPU); test: Post-emergence herbicidal action against PHBPU
Summary of the method: as §1

[10] = tested on: Polygonum convolvulus (POLCO); test: Post-emergence herbicidal action against POLCO
Summary of the method: as §1

[11] = tested on: Setaria viridis (SETVI); test: Post-emergence herbicidal action against SETVI
Summary of the method: as §1

[12] = tested on: Verconica persica (VERPE); test: Post-emergence herbicidal action against VERPE
Summary of the method: as §1

[13] = tested on: Viola tricolor (VIOTR); test: Post-emergence herbicidal action against VIOTR
Summary of the method: as §1

[14] = tested on: Oryza sativa (ORYSA); details: crop plant compatibility
Summary of the method: (§2)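 Percent effect on the crop was judged by eye against untreated controls, where 0% means like control and 100% means dead plants. Plants had been sprayed post-emergence at the one-leaf stage and then kept under optimum greenhouse conditions for about 3 weeks.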

[15] = tested on: Zea mays (ZEAMX); details: 20 g/ha, ZEAMX, effect in comparison to untreated controls
Summary of the method: as §2

[16] = 80 g/ha, visual rating about 3 weeks after treatment vs untreated controls (100% = plants have died, 0% = like control plants)
[17] = 320 g/ha, visual rating about 3 weeks after treatment
[18] = 20 g/ha, effect vs untreated controls
[19] = 80 g/ha, effect in comparison to untreated controls

Compound | Post-emergence action against ABUTH in % ([1]; 80 g/ha) [%] | Post-emergence action against ABUTH in % ([1]; 320 g/ha) [%] | Post-emergence action against ALOMY in % ([2]; 320 g/ha) [%] | Post-emergence action against AMARE in % [3, 16] [%] | Post-emergence action against AMARE in % [3, 17] [%] | Post-emergence action against AVEFA in % ([4]; 320 g/ha) [%] | Post-emergence action against DIGSA in % ([5]; 80 g/ha) [%] | Post-emergence action against DIGSA in % ([5]; 320 g/ha) [%] | Post-emergence action against ECHCG in % ([6]; dosage 80 g/ha) [%] | Post-emergence action against ECHCG in % ([6]; dosage 320 g/ha) [%] | Post-emergence action against LOLRI in % ([7]; dosage 320 g/ha) [%] | Post-emergence action against MATIN in % ([8]; dosage 320 g/ha) [%] | Post-emergence action against PHBPU in % ([9]; dosage 320 g/ha) [%] | Post-emergence action against POLCO in % ([10]; dosage 320 g/ha) [%] | Post-emergence action against SETVI in % ([11]; dosage 80 g/ha) [%] | Post-emergence action against SETVI in % ([11]; dosage 320 g/ha) [%] | Post-emergence action against VERPE in % ([12]; 320 g/ha, VERPE) [%] | Post-emergence action against VERPE in % ([12]; dosage 80 g/ha) [%] | Post-emergence action against VIOTR in % ([13]; 320 g/ha) [%] | Post-emergence action against ORYSA in % [14, 18] [%] | further results
COC(=O)[C@@H](C)Oc1nn(-c2ncccc2F)c(-c2cncc(F)c2)c1I [Example I-197] | 90 | 90 | 90 | 90 | 90 | 90 | 90 | 90 | 90 | 90 | 90 | 90 | 100 | 90 | 90 | 90 | 90 | 90 | 90 | 0 | Post-emergence action against ALOMY in % ([2]; 80 g/ha): 90%; Post-emergence action against AVEFA in % ([4]; 80 g/ha): 90%; Post-emergence action against LOLRI in % ([7]; dosage 80 g/ha): 90%; Post-emergence action against MATIN in % ([8]; dosage 80 g/ha): 80%; Post-emergence action against PHBPU in % ([9]; dosage 80 g/ha): 90%; Post-emergence action against POLCO in % ([10]; dosage 80 g/ha): 90%; Post-emergence action against VIOTR in % ([13]; 80 g/ha): 90%; Post-emergence action against ORYSA in % [14, 19]: 10%
CCOC(=O)[C@@H](C)Oc1nn(-c2ncccc2F)c(-c2cncc(F)c2)c1Br [Example I-227] | 90 | 90 | 90 | 90 | 90 | 90 | 80 | 90 | 90 | 100 | 90 | 90 | 100 | 90 | 90 | 90 | 90 | 90 | 90 | 0 | Post-emergence action against ALOMY in % ([2]; 80 g/ha): 80%; Post-emergence action against AVEFA in % ([4]; 80 g/ha): 90%; Post-emergence action against LOLRI in % ([7]; dosage 80 g/ha): 80%; Post-emergence action against MATIN in % ([8]; dosage 80 g/ha): 80%; Post-emergence action against PHBPU in % ([9]; dosage 80 g/ha): 90%; Post-emergence action against POLCO in % ([10]; dosage 80 g/ha): 90%; Post-emergence action against VIOTR in % ([13]; 80 g/ha): 90%
COC(=O)[C@@H](C)Oc1nn(-c2ncccc2F)c(-c2cncc(F)c2)c1Cl [Example I-146] | 80 | 90 | 90 | 90 | 90 | 90 |  | 90 | 90 | 90 | 90 | 90 | 90 | 90 | 90 | 90 | 90 | 90 | 90 | 0 | Post-emergence action against AVEFA in % ([4]; 80 g/ha): 90%; Post-emergence action against MATIN in % ([8]; dosage 80 g/ha): 90%; Post-emergence action against PHBPU in % ([9]; dosage 80 g/ha): 90%; Post-emergence action against POLCO in % ([10]; dosage 80 g/ha): 80%; Post-emergence action against VIOTR in % ([13]; 80 g/ha): 90%
COC(=O)C(C)OC(=O)C(C)Oc1nn(-c2ccccn2)c(-c2cncc(F)c2)c1Br (mixture of isomers) [Example I-176] |  | 80 | 90 |  |  |  | 80 | 90 | 80 | 90 | 80 | 80 |  | 80 | 80 | 80 |  |  | 80 | 0 | Post-emergence action against LOLRI in % ([7]; dosage 80 g/ha): 80%; Post-emergence action against POLCO in % ([10]; dosage 80 g/ha): 80%; Post-emergence action against ORYSA in % [14, 19]: 10%
COC(=O)COc1nn(-c2ncccc2F)c(-c2ccc(F)nc2)c1Cl [Example I-304] | 80 | 90 | 90 | 80 | 90 | 90 | 90 | 90 | 80 | 90 | 90 | 90 | 90 |  | 90 | 90 | 90 | 80 | 90 |  | Post-emergence action against MATIN in % ([8]; dosage 80 g/ha): 90%; Post-emergence action against PHBPU in % ([9]; dosage 80 g/ha): 80%; Post-emergence action against VIOTR in % ([13]; 80 g/ha): 80%; Post-emergence action against ZEAMX in % (crop plant compatibility) [15]: 20%
COC(=O)[C@@H](C)Oc1nn(-c2ccccn2)c(-c2ccc(F)nc2)c1Br [Example I-252] |  |  | 90 |  |  | 80 | 90 | 90 | 80 | 90 | 80 | 80 | 90 | 80 | 80 | 80 | 80 | 80 | 80 | 10 | Post-emergence action against ALOMY in % ([2]; 80 g/ha): 80%; Post-emergence action against AVEFA in % ([4]; 80 g/ha): 80%; Post-emergence action against LOLRI in % ([7]; dosage 80 g/ha): 80%; Post-emergence action against ZEAMX in % (crop plant compatibility) [15]: 10%
